The target of experiment [1] is T1, Carboxy-terminal domain RNA polymerase II polypeptide A small phosphatase 1 (Homo sapiens, UniProt Q9GZU7).
T1 sequence (Q9GZU7 whole entry): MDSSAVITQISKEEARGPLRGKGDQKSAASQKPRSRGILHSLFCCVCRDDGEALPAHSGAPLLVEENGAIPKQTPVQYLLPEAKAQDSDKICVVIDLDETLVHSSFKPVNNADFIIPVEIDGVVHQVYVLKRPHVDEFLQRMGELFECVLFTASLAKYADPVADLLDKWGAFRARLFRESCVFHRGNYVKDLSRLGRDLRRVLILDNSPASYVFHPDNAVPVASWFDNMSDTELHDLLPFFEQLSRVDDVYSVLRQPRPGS
Kind of experiment: inhibitors of CTDSP1, concentration-response testing, biochemical assay, absorbance-based, actives from ultra-high-throughput screening (AID 540297). Format: functional.

In experiment [2] the target is T2, Small ubiquitin-related modifier 1 (Homo sapiens, UniProt P63165). Kind of experiment: inhibitors of SUMO1 peptide binding, dose response, biochemical, fluorescence polarization, uHTS hits (AID 624382). The class given is functional. The conditions noted are these: read-out: IC50_Mean. In general terms: Polarisation of emitted light reports the rotation of a fluorescent probe.

The target in experiment [3] is T2, Small ubiquitin-related modifier 1. Kind of experiment: inhibitors of SUMO1 partner interactions, dose response, biochemical, FRET (AID 624383). Format: functional. The conditions noted are these: read-out: IC50_Mean.
The target of experiment [4] is Induced myeloid leukemia cell differentiation protein Mcl-1 (Homo sapiens, UniProt Q07820). Kind of experiment: MCL1-BIM BH3 interaction inhibitors, dose response, biochemical, fluorescence polarization, BIM-BH3 peptide, 1536-well (AID 2217).
The next experiment deals with T3, Caspase-6 (Homo sapiens, UniProt P55212).
T3 sequence (P55212 whole entry): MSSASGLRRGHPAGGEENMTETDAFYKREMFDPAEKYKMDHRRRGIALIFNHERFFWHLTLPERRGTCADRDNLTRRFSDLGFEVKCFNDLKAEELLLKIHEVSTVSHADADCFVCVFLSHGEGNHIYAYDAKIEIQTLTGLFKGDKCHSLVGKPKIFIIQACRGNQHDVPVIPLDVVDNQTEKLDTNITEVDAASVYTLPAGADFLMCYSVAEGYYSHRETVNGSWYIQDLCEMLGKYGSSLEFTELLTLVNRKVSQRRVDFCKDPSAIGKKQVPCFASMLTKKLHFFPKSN
Kind of experiment: human caspase-6 inhibitors, dose response, biochemical, VEID-R110 fluorescence, cherry-pick (AID 720632).

The target of a further experiment is Bcl-2-like protein 1 (Homo sapiens, UniProt Q07817). Kind of experiment: BCL-XL inhibitors, dose response, selectivity assay for MCL1 inhibitor project, biochemical, fluorescence polarization, 1536-well (AID 2218).
Experiment [5] is described as follows: M. tuberculosis H37Rv growth inhibitors, H37Rv strain (AID 1626). Format: functional.
For the next experiment, the target named is Vasopressin V1a receptor (Homo sapiens, UniProt P37288). Put plainly: Fluorescence-based cell-based high throughput dose response screening assay for agonists of the vasopressin 1 receptor (V1R). Format: functional.
The target in experiment [6] is T4, RNA-binding protein pos-1 (Caenorhabditis elegans, UniProt G5EF15).
T4 sequence (G5EF15 whole entry): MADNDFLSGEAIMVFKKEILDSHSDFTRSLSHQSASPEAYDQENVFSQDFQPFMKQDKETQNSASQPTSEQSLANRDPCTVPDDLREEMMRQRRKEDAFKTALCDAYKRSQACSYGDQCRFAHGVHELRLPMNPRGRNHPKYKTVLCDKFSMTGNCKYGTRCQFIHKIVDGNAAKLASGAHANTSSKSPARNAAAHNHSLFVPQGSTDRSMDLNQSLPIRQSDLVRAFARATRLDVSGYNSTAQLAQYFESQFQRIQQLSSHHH
Kind of experiment: inhibitors of POS-1/mex-3 RNA binding, dose response, biochemical, fluorescence polarization (AID 1964).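 Note: purified POS-1 fused to maltose binding protein made in E. coli; potency of compounds blocking POS-1 binding to fluorescent RNA.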

Another experiment deals with Oxytocin receptor (Homo sapiens, UniProt P30559). Kind of experiment: Counterscreen for vasopressin 1 receptor (V1R) agonists: Fluorescence-based cell-based high throughput dose response assay for agonists of the Oxytocin Receptor (OXTR). [Related pubchem assays: 2435 (Primary screen (OXTR agonists in singlicate)), 434964 (Confirmation screen (V1R agonists in triplicate)), 434969 (Counterscreen (OXTR agonists in …. The class given is functional. (In general: A counterscreen serves to expose hits that act by an unwanted route or on another target.)

The target of experiment [7] is T5, Zinc finger protein mex-5 (Caenorhabditis elegans, UniProt Q9XUB2).
T5 sequence (Q9XUB2 whole entry): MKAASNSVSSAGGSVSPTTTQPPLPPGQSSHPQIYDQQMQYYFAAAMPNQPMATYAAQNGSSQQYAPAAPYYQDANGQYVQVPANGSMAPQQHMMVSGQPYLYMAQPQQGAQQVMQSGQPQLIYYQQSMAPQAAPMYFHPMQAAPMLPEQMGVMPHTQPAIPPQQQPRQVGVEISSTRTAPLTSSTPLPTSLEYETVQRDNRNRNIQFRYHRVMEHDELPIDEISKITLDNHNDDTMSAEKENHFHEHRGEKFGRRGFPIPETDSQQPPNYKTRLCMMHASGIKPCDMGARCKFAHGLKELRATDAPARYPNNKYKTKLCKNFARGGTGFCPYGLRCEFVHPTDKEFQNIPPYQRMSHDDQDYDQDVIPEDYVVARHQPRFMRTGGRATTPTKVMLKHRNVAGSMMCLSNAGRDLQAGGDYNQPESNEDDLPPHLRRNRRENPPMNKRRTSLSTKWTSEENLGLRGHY
Kind of experiment: MEX-5/TCR-2 RNA interaction inhibitors, dose response, biochemical, C. elegans, fluorescence polarization (AID 1960).

Activity calls are given as the source filed them.

T2 sequence (P63165 whole entry): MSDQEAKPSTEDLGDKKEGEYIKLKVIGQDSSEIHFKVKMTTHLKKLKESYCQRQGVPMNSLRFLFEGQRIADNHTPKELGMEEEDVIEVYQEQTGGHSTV
Bcl-2-like protein 1, sequence (Q07817 whole entry): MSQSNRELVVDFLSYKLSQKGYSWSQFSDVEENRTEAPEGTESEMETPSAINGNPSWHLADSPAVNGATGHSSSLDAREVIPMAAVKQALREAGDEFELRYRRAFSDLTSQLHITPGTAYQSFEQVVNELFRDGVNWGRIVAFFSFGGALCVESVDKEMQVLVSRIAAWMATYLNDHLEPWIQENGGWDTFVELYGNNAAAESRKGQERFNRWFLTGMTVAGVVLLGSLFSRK
Oxytocin receptor, sequence (P30559 whole entry): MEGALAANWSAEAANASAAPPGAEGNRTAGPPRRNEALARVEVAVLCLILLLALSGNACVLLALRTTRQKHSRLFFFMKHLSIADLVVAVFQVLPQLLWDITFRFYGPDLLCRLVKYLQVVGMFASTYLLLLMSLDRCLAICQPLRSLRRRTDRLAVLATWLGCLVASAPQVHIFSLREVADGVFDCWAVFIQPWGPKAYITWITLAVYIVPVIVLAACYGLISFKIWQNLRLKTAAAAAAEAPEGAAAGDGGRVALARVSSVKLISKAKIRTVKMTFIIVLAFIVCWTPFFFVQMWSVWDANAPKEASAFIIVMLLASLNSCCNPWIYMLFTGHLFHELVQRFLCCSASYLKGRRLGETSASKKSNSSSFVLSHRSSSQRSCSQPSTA
Vasopressin V1a receptor, sequence (P37288 whole entry): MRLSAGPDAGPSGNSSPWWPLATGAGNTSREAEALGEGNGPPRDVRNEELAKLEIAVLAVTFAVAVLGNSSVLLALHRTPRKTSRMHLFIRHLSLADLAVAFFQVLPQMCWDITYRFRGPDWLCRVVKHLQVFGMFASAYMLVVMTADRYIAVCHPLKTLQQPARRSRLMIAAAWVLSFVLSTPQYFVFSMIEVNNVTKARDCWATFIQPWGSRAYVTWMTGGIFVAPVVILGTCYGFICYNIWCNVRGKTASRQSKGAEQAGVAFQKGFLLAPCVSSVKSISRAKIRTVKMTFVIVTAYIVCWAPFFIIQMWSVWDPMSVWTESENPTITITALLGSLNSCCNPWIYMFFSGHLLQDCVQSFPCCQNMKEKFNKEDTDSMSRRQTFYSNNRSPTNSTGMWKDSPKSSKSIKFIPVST
Induced myeloid leukemia cell differentiation protein Mcl-1, sequence (Q07820 whole entry): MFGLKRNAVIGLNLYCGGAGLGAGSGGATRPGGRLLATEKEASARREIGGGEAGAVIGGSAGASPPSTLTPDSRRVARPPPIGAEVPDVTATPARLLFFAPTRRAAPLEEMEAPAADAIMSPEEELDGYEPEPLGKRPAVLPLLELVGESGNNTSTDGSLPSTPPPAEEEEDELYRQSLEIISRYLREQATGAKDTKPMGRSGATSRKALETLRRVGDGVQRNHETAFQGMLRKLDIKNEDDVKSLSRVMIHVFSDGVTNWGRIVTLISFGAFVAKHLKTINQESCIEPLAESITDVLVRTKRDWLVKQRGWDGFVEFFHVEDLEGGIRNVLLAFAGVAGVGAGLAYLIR

In general, AC50 refers to the midpoint of the concentration-response curve, whichever way the signal moves. For `Cc1ccc(C)c(S(=O)(=O)Nc2ccc3oc(C)c(C(=O)O)c3c2)c1`, the IC50 is 3.21 µM (active) in experiment [1]; > 66.6 µM (inactive) in [2]; 11.3 µM (active) in [3]; 18.2 µM (not active) in experiment [4]; 93.3 µM (not active) at Bcl-2-like protein 1. On Caspase-6, the AC50 is 3.67 µM (active).

Regarding `Cc1ccccc1NC(=O)Nc1ccc(C(F)(F)F)cc1`, the IC50 in experiment [5] is > 100 µM (active).

Broadly, the EC50 is the concentration at which the effect is half-maximal. Turning to `Cc1cc(C)c(/C=C2\C(=O)Nc3ccccc32)[nH]1` [SEMAXANIB], the EC50 on Vasopressin V1a receptor is recorded as 12.1 µM (not active); in experiment [6] it was > 300 µM (not active); on Oxytocin receptor, 11.5 µM (not active); in experiment [7], > 300 µM (not active).
